Consider 13 compounds from patent US6426362B1, “Formulations of tocopherols and methods of making and using them” (Galileo Laboratories, Inc., priority 1999, dated 2002).

The subject of the assay is Oxidatively competent cells. The assay is described as follows: Antimycin A-induced cell death in oxidatively competent cells, SYTOX assay after 4 hours. The format is cell-based, rat-human hybrid (GCL1). The conditions noted are these: for Cell Death (%): ± SD; for potency among the tocopherols tested: Table 1 comparison; for cell death when tested individually: highest concentrations tested. The source says: The GCL1 (WiF-B) liver cell line is a hybrid originating from the fusion of rat hepatoma cells (fao) and human fibroblasts (W138). Cassio et al. (1991) J. Cell Biol. 115:1397-1408; Shanks et al. (1994) J. Cell Science 107:813-825. […] Ihrke et al. 1993, J. Cell Biol. 123:1761-1775. At greater than 80% confluence, more than 80% of the cells participate in forming one or more phaselucent, spherical structures that are located between cells, termed bile canicular-like spaces. In contrast to the majority of cell lines maintained in culture which are fermentative, GCL1 cells, when at their maximal density and polarity, are highly oxidative (i.e., they can be readily killed by inhibitors of oxidative phosphorylation or electron transport uncouplers). […] These cells are amenable to use in high throughput screening (HTS) technology.
Energetically competent cells are seeded onto 96-well plates at 1×10^3/well or 2.5×10^3/well as passage 15. The cells are grown in DMEM with 10% FBS and 1.5 g/L sodium bicarbonate for 24 or 48 hours to reach 85% confluence. The cells are washed once with HBSS and then 100 μl of HBSS containing different concentration of AA (Sigma Chemical Co., Cat # A 8674) is added to the cells. AA is dissolved in DMSO to make a stock solution of 50 mM, then diluted with HBSS to 100, 50, 25, 12.5, 6.25, 3.125, and 1.56 μM for dose-response curves. The cells, with or without AA, are incubated at 37° C. in a 5% CO2 humidified incubator for 1, 3, and 5 hours. The concentration of AA is chosen to induce 75% or 100% cell death as a screening dose to test the effect of tocopherols to protect against AA-induced cell toxicity. The concentration of agents used for screening will be dependent upon the agents. Certain control groups contain 100 μl of HBSS only.
SYTOX Green nucleic acid stain is a high-affinity nucleic acid stain that easily penetrates cells with a compromised plasma membrane but will not cross the membrane of live cells. The nucleic acids of dead cells fluoresce bright green at 524 nm when excited with the 488 nm spectral source or with any other 450-500 nm source. […] In the cell viability assay chemical ischemia is created in cells that are incubated with the SYTOX dye. The compound antimycin is used to simulate ischemia at the same time as stimulating the cells with forskolin. […] The assay is performed on cells grown in 96-well format allowing high throughput screening of compounds.
Materials: (i)SYTOX Green dye, supplied as a 5 mM solution in DMSO (Molecular Probes # S-7020) is stored at −20° C. until use. ii.) Antimycin-A: (Sigma # A-8674) dissolve […] in 10 ml of DMSO to make a 10 mM stock solution. Aliquot at 100 μl. This 10 mM stock is then diluted to 1 mM with DMSO and aliquoted at 25 μL. Both the 10 mM and the 1 mM are stored at −20° C. until use. (iii) Forskolin (Sigma # F-6886), dissolve 50 mg aliquot in 1.62 ml of DMSO to make a 100 mM stock solution. Aliquot at 100 μl and store at −20° C. until use. iv.) HBSS-SYTOX-FORSKOLIN-ANTIMYCIN (H-S-F-A) solution: H-S-F-A solution is made up fresh prior to each assay in sterile 175 ml or 225 ml Falcon bottles. The working concentrations for the assay are 3 μM SYTOX, 50 μM Forskolin and 30 μM Antimycin.
Cells are grown in 96-well black plates (with or without clear bottoms) at a density of 1000 cells per well for 24 hours. The necessary number of 96-well plates containing the specific cell type are obtained and placed in the laminar flow safety cabinet. A sterile microtiter basin is filled with the appropriate volume of pre-warmed 1×HBSS. Using aseptic technique and an 8-channel aspirator, the media is carefully removed from the cells and replaced with 200 μl of 1×HBSS. This is done as quickly as possible to prevent the cells drying out. The plates are then placed in the humidified 37° C. incubators of the Biomek 2000 Side Loader.

Where [1] appears, read: salts of (+)alpha-tocopherol, dose of tocopherol 1.2 μg/ml.
[2] abbreviates: salts of (+)alpha-tocopherol, dose of tocopherol 3.7 μg/ml.
Setting [3] is: salts of (+)alpha-tocopherol, dose of tocopherol 11 μg/ml.
The mark [4] stands for this setting: salts of (+)alpha-tocopherol, dose of tocopherol 33 μg/ml.
Where [5] appears, read: salts of (+)alpha-tocopherol, dose of tocopherol 100 μg/ml.
Setting [6] is: dose 1.2 μg/ml, with antimycin A, 4 hours, SYTOX.
The mark [7] stands for this setting: dose 3.7 μg/ml, with antimycin A, 4 hours, SYTOX.
[8] abbreviates: dose 11 μg/ml, with antimycin A, 4 hours, SYTOX.
Setting [9] is: dose 33 μg/ml, with antimycin A, 4 hours, SYTOX.
[10] abbreviates: dose 100 μg/ml, with antimycin A, 4 hours, SYTOX.

Take `COc1ccc([C@@H]2CC(=O)c3c(O)cc(O)cc3O2)cc1O` [hesperetin, (S)-2,3-dihydro-5,7-dihydroxy-2-(3-hydroxy-4-methoxyphenyl)-4H-1-benzopyran-4-one]: under “2 and 50 μM heperitin, 0.22 and 3.6 μg/ml tocopherol, cell death four hours later”, the “efficacy when tested separately” value is “generally ineffective”.

Consider `Cc1c(C)c2c(c(C)c1OP(=O)(O)O)CC[C@@](C)(CCC[C@H](C)CCC[C@H](C)CCCC(C)C)O2` [alpha-tocopherol phosphate], for which the “Cell Death (%)” value under setting [1] is listed as 79.7 ± 8.7%; the “Cell Death (%)” value under setting [2] amounted to 76.5 ± 4.2%; the “Cell Death (%)” value under setting [3] worked out at 83.9 ± 4.4%; the “Cell Death (%)” value under setting [4] was determined as 47.2 ± 10.8%; the “Cell Death (%)” value under setting [5] worked out at 43.2 ± 17.4%.

Turning to `CC(=O)Oc1c(C)c(C)c2c(c1C)CCC(C)(CCC[C@H](C)CCC[C@H](C)CCCC(C)C)O2` (stereo partly drawn) [alpha-tocopherol acetate], the “Cell Death (%)” value reads like this: under setting [1], 73.2% ± 3.3; under setting [2], 77.5% ± 4.9; under setting [3], 71.1% ± 1.5; under setting [4], 64.8% ± 4.9; under setting [5], 38.% ± 2.3; (salts of (+)alpha-tocopherol, dose of tocopherol 100 μg/ml, listed as acetate salt of alpha-tocopherol) 38%.

Turning to `Cc1c(O)cc2c(c1C)OC(C)(CCCC(C)CCCC(C)CCCC(C)C)CC2` (centres unmarked) [+ gamma-tocopherol, 3,4-dihydro-2,7,8-trimethyl-2-(4,8,12-trimethyltridecyl)-2H-1-benzyopyran-6-ol], the “potency among the tocopherols tested” value is on record as “most potent”. This compound also yielded a cell death (Example 7, alone at 1 μg/ml (highest concentration tested)) of 62.5%. Moreover, the “Cell Death (%)” value under setting [6] is 76.8 ± 3.1%. In addition, the “Cell Death (%)” value under setting [7] came to 69.3 ± 3.3%. Also, the “Cell Death (%)” value under setting [8] is given as 37.2 ± 0.7%. The “Cell Death (%)” value under setting [9] is 16.7 ± 1.9%. The “Cell Death (%)” value under setting [10] is reported as −8.5 ± 3.3%. Besides, the “protection against stress-induced cell death” value (shortened to “protection”) (gamma-tocopherol alone, 0.03-0.3 μg/ml) is given as “not protective by itself”.

On to `Cc1c(C)c2c(c(C)c1O)CCC(C)(CCCC(C)CCCC(C)CCCC(C)C)O2` (stereo not drawn) [alpha-tocopherol, 2,5,7,8-tetramethyl-2-(4′,8′,12′-trimethyltridecyl)-6-chromanol], for which, for the setting “biochanin A experiment”, the “cell death when tested individually” value is “about half of the cells died”.

Regarding `Cc1c(C)c2c(c(C)c1OC(=O)CCC(=O)O)CC[C@@](C)(CCC[C@H](C)CCC[C@H](C)CCCC(C)C)O2` [alpha-tocopherol succinate], the “Cell Death (%)” value runs as follows: under setting [1], 85.8 ± 1.4%; under setting [2], 83.9 ± 0.3%; under setting [3], 85.5 ± 2.5%; under setting [4], 90.4 ± 7.4%; under setting [5], 98.7 ± 6.0%.

As for `COc1ccc(-c2cc(=O)c3c(O)cc(O[C@@H]4O[C@H](CO[C@@H]5O[C@@H](C)[C@H](O)[C@@H](O)[C@H]5O)[C@@H](O)[C@H](O)[C@H]4O)cc3o2)cc1O` [diosmin, reference compound], the “protection” value is, setting by setting: (diosmin alone at 100 μM) “no protection”; (diosmin alone, 3.3-100 μM) “not protective by itself”; (diosmin alone, 33-100 μM) “not effective”.

Take `Cc1c(C)c2c(c(C)c1OC(=O)c1cccnc1)CC[C@@](C)(CCC[C@H](C)CCC[C@H](C)CCCC(C)C)O2` [alpha-tocopherol nicotinate]: the “Cell Death (%)” value reads like this: under setting [1], 81.0 ± 2.5%; under setting [2], 76.8 ± 7.0%; under setting [3], 74.0 ± 2.4%; under setting [4], 77.5 ± 3.0%; under setting [5], 67.5 ± 2.8%.

`Cc1cc(O)cc2c1O[C@](C)(CCC[C@H](C)CCC[C@H](C)CCCC(C)C)CC2` (relative stereo) [(+) delta-tocopherol, [2R-[2R*(4R*,8R*)]]-3,4-dihydro-2,8-dimethyl-2-(4,8,12-trimethyltridecyl)-2H-1-benzo-pyran-6-ol]: the “potency among the tocopherols tested” value is “most potent”. Also, under setting [6], the “Cell Death (%)” value was 61.3% ± 4.2. Besides, the “Cell Death (%)” value under setting [7] is 39.3% ± 3.8. Under setting [8], the “Cell Death (%)” value is 21.3% ± 1.0. In addition, the “Cell Death (%)” value under setting [9] was −8.19% ± 1.4. The “Cell Death (%)” value under setting [10] is −68.19% ±.

For `COc1ccc(-c2coc3cc(O)cc(O)c3c2=O)cc1` [biochanin A, 5,7-dihydroxy-4′-methoxyiso-flavone], the “cell death when tested individually” value (biochanin A experiment) is “about half of the cells died”.

Regarding `Cc1c(C)c2c(c(C)c1O)CC[C@@](C)(CCC[C@H](C)CCC[C@H](C)CCCC(C)C)O2` (relative stereo) [(+) alpha-tocopherol, [2R-2R*(4R*,8R*)]-3,4-dihydro-2,5,7,8-tetramethyl-2-(4,8,12-trimethyltridecyl)-2H-1-benzopyran-6-ol], the “Cell Death (%)” value was 77.0% ± 2.5 under setting [6]; 70.13% ± 5.8 under setting [7]; 64.4% ± 3.1 under setting [8]; 49.8% ± 6.0 under setting [9]; 33.78% ± 1.5 under setting [10].

`O=c1c(-c2ccc(O)cc2)coc2cc(O)ccc12` [daidzein, 7-hydroxy-3-(4-hydroxyphenyl)-4H-1-benzopyran-4-one]: the “cell death when tested individually” value (daidzein experiment) was “over half of the cells died”.

For `Cc1c(C)c2c(c(C)c1O)CCC(C)(CCCC(C)CCCC(C)CCCC(C)C)O2` (racemic) [(+/−) alpha-tocopherol, 2,5,7,8-tetramethyl-2-(4′,8′,12′-trimethyltridecyl)-6-chromanol], for the setting “(+/−) alpha-tocopherol alone at 10 μg/ml”, the “protection” value is “about 15%”. Further, the cell death was 53% (Example 7, alone at 10 μg/ml (highest concentration tested)) and 79.4% (Example 8, tocopherol alone at 10 μg/ml). Also, under “daidzein experiment”, the “cell death when tested individually” value is given as “over half of the cells died”. In addition, the “Cell Death (%)” value is, setting by setting: under setting [6], 77.2% ± 0.8; under setting [7], 73.5% ± 1.2; under setting [8], 52.4% ± 3.4; under setting [9], 44.2% ± 1.2; under setting [10], 19.7% ± 2.9.
